For one assay, the system named is H526 cell line. Kind of assay: Cell viability assay for H526 cell line. Type of assay: cell-based. The note with it: Homo sapiens, NCI-H526, 120 h; H526 cells, 5 days, EZ-Cytox, 0.46-3000 nM. Summed up:
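NCI-H526 cells exposed to compounds for 5 days in a CO2 incubator; viability read as absorbance at 450 nm after 3 min plate shaking; IC50 derived from treatment response.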

The subject of another assay is MRC-5 cell line. Briefly: Cell viability assay for MRC-5 cell line. The note with it: Homo sapiens, MRC5, 120 h, read-out: Activity: IC50 value (nM) to MRC-5 cell line.
The target of the next assay is T1, PLK1 (Homo sapiens, UniProt P53350).
T1 construct: endogenous in cells; host or cells: HeLa cells stably expressing LgBit, with CRISPR/Cas9 knock-in of HiBit at the endogenous PLK1 locus
T1 sequence (P53350 whole entry): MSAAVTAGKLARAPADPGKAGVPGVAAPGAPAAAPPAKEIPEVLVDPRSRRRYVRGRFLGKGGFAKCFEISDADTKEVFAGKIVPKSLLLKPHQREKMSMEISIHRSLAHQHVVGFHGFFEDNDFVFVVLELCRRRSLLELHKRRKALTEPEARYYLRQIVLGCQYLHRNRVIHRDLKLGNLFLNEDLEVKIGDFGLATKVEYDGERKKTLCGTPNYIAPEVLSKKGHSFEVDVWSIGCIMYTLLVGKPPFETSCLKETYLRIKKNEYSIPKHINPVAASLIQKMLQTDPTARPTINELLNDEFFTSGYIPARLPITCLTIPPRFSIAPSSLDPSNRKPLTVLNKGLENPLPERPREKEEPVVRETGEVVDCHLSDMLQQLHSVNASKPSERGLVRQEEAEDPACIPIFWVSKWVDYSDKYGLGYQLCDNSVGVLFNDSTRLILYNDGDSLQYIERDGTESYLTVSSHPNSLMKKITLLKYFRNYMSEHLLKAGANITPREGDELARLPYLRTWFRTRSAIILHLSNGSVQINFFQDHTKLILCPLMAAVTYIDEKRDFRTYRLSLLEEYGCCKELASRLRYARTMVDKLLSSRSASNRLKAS
Kind of assay: Luciferase assay for PLK1 in HeLa LgBit (Plk1-HiBit KI) cell line. The note with it: 300 nM compound, luminescence after 9 hours. Type of assay: cell-based. Summed up: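 HeLa LgBit cells with endogenous Plk1 C-terminally HiBiT-tagged by CRISPR knock-in were synchronized by 2 mM thymidine block for 24 h, then released and seeded. After 18 h, Endurazine was added and compounds were dosed at 300 nM. Luminescence was tracked in real time; activity is the ratio to DMSO.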

For orientation: IC50 means the concentration at which inhibition is half-maximal. As for `COc1cc(C(=O)NC2CC3(CCN(CC4CCN(c5ccc(C6CCC(=O)NC6=O)cc5)CC4)CC3)C2)ccc1Nc1ncc2c(n1)N(C(C)C)CC(F)(F)C(=O)N2C` (stereo not drawn) [Compound 19, 4-((7,7-difluoro-9-isopropyl-5-methyl-6-oxo-6,7,8,9-tetrahydro-5H-pyrimido[4,5-b][1,4]diazepin-2-yl)amino)-N-(7-((1-(4-(2,6-dioxopiperidin-3-yl)phenyl)piperidin-4-yl)methyl)-7-azaspiro[3.5]nonan-2-yl)-3-methoxybenzamide], the IC50 is under 0.03 µM with H526 cell line and 13100 nM in the assay with MRC-5 cell line. For the same compound, the “Activity: ratio of the luminescence value of each Exemplary Compound treatment group to DMSO treatment group” value (“Activity: ratio” for short) on PLK1 was “++ (++ <0.6)”.

For `Cc1cc(C(=O)NC2CC3(CCN(CC4CCN(c5ccc(C6CCC(=O)NC6=O)cc5F)CC4)CC3)C2)c(F)cc1Nc1ncc2c(n1)N(C(C)C)CC(F)(F)C(=O)N2C` (stereo not drawn) [Compound 21, 4-((7,7-difluoro-9-isopropyl-5-methyl-6-oxo-6,7,8,9-tetrahydro-5H-pyrimido[4,5-b][1,4]diazepin-2-yl)amino)-N-(7-((1-(4-(2,6-dioxopiperidin-3-yl)-2-fluorophenyl)piperidin-4-yl)methyl)-7-azaspiro[3.5]nonan-2-yl)-2-fluoro-5-methylbenzamide], the IC50 in the assay with H526 cell line is under 0.05 µM; with MRC-5 cell line, 12600 nM. Further, the “Activity: ratio” value on PLK1 is on record as “++ (++ <0.6)”.

As to `COc1cc(C(=O)NC2CCN(C3CC4(CCN(c5ccc(C6CCC(=O)NC6=O)cc5F)CC4)C3)CC2)ccc1Nc1ncc2c(n1)N(C(C)C)CC(F)(F)C(=O)N2C` (stereo not drawn) [Compound 39, 4-((7,7-difluoro-9-isopropyl-5-methyl-6-oxo-6,7,8,9-tetrahydro-5H-pyrimido[4,5-b][1,4]diazepin-2-yl)amino)-N-(1-(7-(4-(2,6-dioxopiperidin-3-yl)-2-fluorophenyl)-7-azaspiro[3.5]nonan-2-yl)piperidin-4-yl)-3-methoxybenzamide], the IC50 in the assay with H526 cell line is under 0.05 µM; in the assay on MRC-5 cell line it was 5800 nM. In addition, at PLK1, the “Activity: ratio” value is recorded as “++ (++ <0.6)”.

The values are drawn from patent US11939334B2, “Substituted pyrimido[4,5-b][1,4]diazepines as PLK1 degradation inducers” (UPPTHERA, INC., priority 2021, dated 2024).
